Measured values: PubChem BioAssay AID330 (DTP/NCI, 2004)
Values joined by “and” are separate entries in the source; they are usually repeats but may differ in a detail not shown here. Equal entries are not always repeated. Inconclusive results and toxic doses are left out. How the source made its calls: active means survival T/C of 150% or more; inactive means T/C below 125% in these data.

System: P388 leukemia ip, CD2F1 mice, survival T/C
Assay: NCI In Vivo Anticancer Drug Screen. Data for tumor model P388 Leukemia (intraperitoneal) in CD2F1 (CDF1) mice
Conditions: endpoint: median survival time, higher = longer survival
In short: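 Mice carrying the transplanted tumor received test compound or vehicle. Survival was recorded in each group, and the value is the treated-group measurement divided by that of the vehicle-treated control group.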

[1] = dose: 60.0 mg/kg/injection, schedule: Q01DX005 (ip), vehicle: saline with Tween-80
[2] = dose: 120.0 mg/kg/injection, schedule: Q01DX005 (ip), vehicle: saline with Tween-80
[3] = dose: 240.0 mg/kg/injection, schedule: Q01DX005 (ip), vehicle: saline with Tween-80
[4] = dose: 50.0 mg/kg/injection, schedule: Q01DX009 (ip), vehicle: saline with Tween-80
[5] = dose: 100.0 mg/kg/injection, schedule: Q01DX009 (ip), vehicle: saline with Tween-80
[6] = dose: 200.0 mg/kg/injection, schedule: Q01DX009 (ip), vehicle: saline with Tween-80
[7] = dose: 100.0 mg/kg/injection, schedule: Q04DX003 (ip), vehicle: saline
[8] = dose: 200.0 mg/kg/injection, schedule: Q04DX003 (ip), vehicle: saline
[9] = dose: 12.5 mg/kg/injection, schedule: Q01DX009 (ip), vehicle: Klucel (hydroxypropylcellulose) (HPC)
[10] = dose: 50.0 mg/kg/injection, schedule: Q01DX009 (ip), vehicle: saline
[11] = dose: 100.0 mg/kg/injection, schedule: Q01DX009 (ip), vehicle: saline
[12] = dose: 50.0 mg/kg/injection, schedule: Q01DX005 (ip), vehicle: Klucel (hydroxypropylcellulose) (HPC)
[13] = dose: 100.0 mg/kg/injection, schedule: Q01DX005 (ip), vehicle: Klucel (hydroxypropylcellulose) (HPC)

Measured: T/C

Clc1ccc(-c2nnc(-c3ccncc3)o2)c(Cl)c1
inactive: [1] 93 % of control | [2] 93 % of control | [3] 86 % of control

CCOCc1ccc(C(=O)NCCCc2c(-c3ccccc3)nc(N)[nH]c2=O)cc1
inactive: dose: 3.75 mg/kg/injection, schedule: Q01DX005 (ip), vehicle: Klucel (hydroxypropylcellulose) (HPC) 100 % of control and 103 % of control and 94 % of control | dose: 7.5 mg/kg/injection, schedule: Q01DX005 (ip), vehicle: Klucel (hydroxypropylcellulose) (HPC) 93 % of control and 97 % of control | dose: 15.0 mg/kg/injection, schedule: Q01DX005 (ip), vehicle: Klucel (hydroxypropylcellulose) (HPC) 89 % of control and 92 % of control and 97 % of control | dose: 240.0 mg/kg/injection, schedule: Q01DX005 (ip), vehicle: Klucel (hydroxypropylcellulose) (HPC) 86 % of control

CN1CC2(CO)C(c3ccccn3)N(C)C(c3ccccn3)C(CO)(C1)C2O (stereo not drawn)
inactive: [1] 107 % of control | [2] 104 % of control

c1ccc2cc(SCCCN3CCOCC3)ccc2c1
inactive: dose: 50.0 mg/kg/injection, schedule: Q01DX009 (ip), vehicle: saline sonified 100 % of control | dose: 100.0 mg/kg/injection, schedule: Q01DX009 (ip), vehicle: saline sonified 104 % of control | dose: 200.0 mg/kg/injection, schedule: Q01DX009 (ip), vehicle: saline sonified 100 % of control

Cc1nc2c(Cl)cc(Cl)cc2c(=O)n1CC(=O)NNC(N)=S
inactive: [4] 97 % of control | [5] 94 % of control | [6] 93 % of control

CC(C)(O)C(=O)N/N=C/c1ccc(Cl)cc1
inactive: [1] 101 % of control | [2] 99 % of control | [3] 100 % of control

CCC/C=C1/OC(=O)C2=C[C@H]3CC[C@]21[C@]1(OC(=O)C2=C1CCC=C2)[C@H]3CCC
inactive: dose: 7.0 mg/kg/injection, schedule: Q01DX005 (ip), vehicle: Klucel (hydroxypropylcellulose) (HPC) 104 % of control | dose: 14.0 mg/kg/injection, schedule: Q01DX005 (ip), vehicle: Klucel (hydroxypropylcellulose) (HPC) 100 % of control | dose: 28.0 mg/kg/injection, schedule: Q01DX005 (ip), vehicle: Klucel (hydroxypropylcellulose) (HPC) 106 % of control | dose: 56.0 mg/kg/injection, schedule: Q01DX005 (ip), vehicle: Klucel (hydroxypropylcellulose) (HPC) 97 % of control

CN(C)CCCC[N+](C)(C)Cc1ccc(C[N+](C)(C)CCCC[N+](C)(C)Cc2ccc(CCl)cc2)cc1
inactive: dose: 3.12 mg/kg/injection, schedule: Q04DX003 (ip), vehicle: saline 100 % of control | dose: 6.25 mg/kg/injection, schedule: Q04DX003 (ip), vehicle: saline 94 % of control | dose: 12.5 mg/kg/injection, schedule: Q04DX003 (ip), vehicle: saline 100 % of control and 111 % of control and 96 % of control | dose: 25.0 mg/kg/injection, schedule: Q04DX003 (ip), vehicle: saline 100 % of control and 113 % of control

COc1cc(Cc2nc3n(O)cc(-c4ccccc4)nc-3c(=N)n2)cc(OC)c1OC
inactive: dose: 12.5 mg/kg/injection, schedule: Q01DX009 (ip), vehicle: saline with Tween-80 104 % of control | dose: 25.0 mg/kg/injection, schedule: Q01DX009 (ip), vehicle: saline with Tween-80 108 % of control | [4] 104 % of control

COc1ccc(Br)cc1
inactive: [4] 104 % of control | dose: 50.0 mg/kg/injection, schedule: Q04DX003 (ip), vehicle: saline 100 % of control | [5] 118 % of control | [7] 105 % of control | [6] 109 % of control | [8] 110 % of control

N#CN=[N+]([O-])c1cccc(Cl)c1
inactive: dose: 3.12 mg/kg/injection, schedule: Q01DX009 (ip), vehicle: Klucel (hydroxypropylcellulose) (HPC) 101 % of control | dose: 6.25 mg/kg/injection, schedule: Q01DX009 (ip), vehicle: Klucel (hydroxypropylcellulose) (HPC) 108 % of control | dose: 6.25 mg/kg/injection, schedule: Q04DX003 (ip), vehicle: Klucel (hydroxypropylcellulose) (HPC) 101 % of control | [9] 98 % of control | dose: 12.5 mg/kg/injection, schedule: Q04DX003 (ip), vehicle: Klucel (hydroxypropylcellulose) (HPC) 104 % of control | dose: 25.0 mg/kg/injection, schedule: Q04DX003 (ip), vehicle: Klucel (hydroxypropylcellulose) (HPC) 91 % of control

CC(=O)N(C)N=Nc1ccc(C)cc1
inactive: [10] 100 % of control and 121 % of control and 123 % of control | [11] 100 % of control and 118 % of control and 121 % of control

Oc1c2ccccc2c(O)c2nc3ccccc3nc12
inactive: [10] 100 % of control | [11] 99 % of control | dose: 200.0 mg/kg/injection, schedule: Q01DX009 (ip), vehicle: saline 100 % of control

NC(=O)c1ncn(C2OC(CO)C(O)C2O)c1O (stereo not drawn)
inactive: [9] 107 % of control | dose: 25.0 mg/kg/injection, schedule: Q01DX009 (ip), vehicle: Klucel (hydroxypropylcellulose) (HPC) 113 % of control | dose: 50.0 mg/kg/injection, schedule: Q01DX009 (ip), vehicle: Klucel (hydroxypropylcellulose) (HPC) 115 % of control | dose: 100.0 mg/kg/injection, schedule: Q01DX009 (ip), vehicle: Klucel (hydroxypropylcellulose) (HPC) 113 % of control | dose: 200.0 mg/kg/injection, schedule: Q01DX009 (ip), vehicle: Klucel (hydroxypropylcellulose) (HPC) 96 % of control

O=C1C=CC(=O)c2c(O)cccc21
inactive: dose: 0.39 mg/kg/injection, schedule: Q01DX009 (ip), vehicle: saline with Tween-80 93 % of control | dose: 0.75 mg/kg/injection, schedule: Q01DX009 (ip), vehicle: saline with Tween-80 95 % of control | dose: 0.78 mg/kg/injection, schedule: Q01DX009 (ip), vehicle: saline with Tween-80 93 % of control | dose: 1.5 mg/kg/injection, schedule: Q01DX009 (ip), vehicle: saline with Tween-80 90 % of control | dose: 1.56 mg/kg/injection, schedule: Q01DX009 (ip), vehicle: saline with Tween-80 102 % of control | dose: 3.13 mg/kg/injection, schedule: Q01DX009 (ip), vehicle: saline with Tween-80 90 % of control

CCCCN(CCCC)C(=O)C(C)O (stereo not drawn)
inactive: dose: 25.0 mg/kg/injection, schedule: Q01DX005 (ip), vehicle: Klucel (hydroxypropylcellulose) (HPC) 108 % of control | [12] 105 % of control | [13] 110 % of control | dose: 200.0 mg/kg/injection, schedule: Q01DX005 (ip), vehicle: Klucel (hydroxypropylcellulose) (HPC) 112 % of control

NC(N)=N/N=C1/C=C2C/C(=N\N=C(N)N)C=C2C1
inactive: [12] 106 % of control | [13] 104 % of control

OC(C1=NNC(C(O)c2ccccc2)=NN1)c1ccccc1 (stereo not drawn)
inactive: [1] 92 % of control | [2] 100 % of control | [3] 102 % of control

Cn1c2nc(-[n+]3ccc4ccccc4c3)nc-2c([O-])n(C)c1=O
inactive: [7] 100 % of control | [8] 99 % of control | dose: 400.0 mg/kg/injection, schedule: Q04DX003 (ip), vehicle: saline 100 % of control

CSc1nc(NC(C)C)nc(NC(C)C)n1
inactive: dose: 50.0 mg/kg/injection, schedule: Q04DX003 (ip), vehicle: saline with Tween-80 100 % of control | dose: 100.0 mg/kg/injection, schedule: Q04DX003 (ip), vehicle: saline with Tween-80 91 % of control

O=c1nc2n(c3ncccc13)CC=NN2
inactive: [1] 99 % of control | [2] 100 % of control

CN=C(N)NN=C1c2ccccc2-c2ccccc21
inactive: dose: 25.0 mg/kg/injection, schedule: Q04DX002 (ip), vehicle: saline with Tween-80 97 % of control | dose: 50.0 mg/kg/injection, schedule: Q04DX002 (ip), vehicle: saline with Tween-80 101 % of control

C/C=C/c1ccc(OC(C)C(=O)c2ccc(OC)c(OC)c2)c(OC)c1 (stereo not drawn)
inactive: dose: 10.0 mg/kg/injection, schedule: Q01DX005 (ip), vehicle: Klucel (hydroxypropylcellulose) (HPC) 97 % of control | dose: 20.0 mg/kg/injection, schedule: Q01DX005 (ip), vehicle: Klucel (hydroxypropylcellulose) (HPC) 100 % of control | dose: 40.0 mg/kg/injection, schedule: Q01DX005 (ip), vehicle: Klucel (hydroxypropylcellulose) (HPC) 99 % of control
